Results as given in patent US12162878B2 (HINOVA PHARMACEUTICALS INC., priority 2018, dated 2024).

Tests used:
BRD2(1,2) = BRD2(1,2) (Homo sapiens (Human), UniProt P25440); assay: AlphaScreen binding of compounds on BRD2 (D1+D2); details: read-out: IC50 against BRD2(1,2)
Text: (§1) Homogeneous time-resolved fluorescence technology (HTRF) was used to determine the binding effect of compounds on BRD4 (D1+D2) and BRDT (D1) proteins, as well as AlphaScreen method was used to detect the binding effect of compounds on BRD2 (D1+D2) and BRD3 (D1+D2) proteins.
(§2) The compounds were screened in vitro, and each compound was serially diluted to 10 concentrations. Four proteins BRD4 (D1+D2), BRDT (D1), BRD2 (D1+D2) and BRD3 (D1+D2) were chosen to determine the IC50 values of compounds (see Table 1).
(§3) 4. Compound treatment: The test compound was dissolved in dimethyl sulfoxide (DMSO), and the storage concentration was 10 mM.
(§4) 6. AlphaScreen Detection Procedures:
(§5) 1) Preparing One-Fold Concentration of Detection Buffer
(§6) One-fold concentration of detection buffer was prepared (Improved HEPES buffer)
(§7) 2) Gradient Dilution of Compounds
(§8) Echo automatic sampler was used to transfer the compound to the detection plate for gradient dilution, so that the final concentration of dimethyl sulfoxide was 0.1%.
(§9) 3) Preparation of Protein Solution
(§10) The protein was dissolved in one-fold concentration of detection buffer.
(§11) 4) Preparation of Substrate Solution
(§12) The peptide was dissolved in one-fold concentration of detection buffer to prepare the substrate solution.
(§13) 5) 5 μL protein solution was transferred to the detection plate, and one-fold concentration of detection buffer (5 μL) was placed in the negative control wells.
(§14) 6) The plate was incubated for 15 min at room temperature.
(§15) 7) 5 μL substrate solution was added to each well to start the reaction.
(§16) 8) The plate was incubated for additional 60 min at room temperature.
(§17) 9) Preparation of acceptor solution and donor solution in one-fold concentration of assay buffer Acceptor solution (15 μL) and donor solution (15 μL) were respectively added, and then incubated at room temperature for 60 min and protected against exposure to light.
(§18) 10) The endpoint was read in EnSpire and Alpha mode.
(§19) The experimental data were recorded in an Excel file and equation (1) was used to get the inhibition rate. Inh%=(Max−Signal)/(Max−Min)*100 Equation (1):
(§20) The obtained data were input into GraphPad software, and equation (2) was used to obtain the IC50 value. Y=Bottom+(Top−Bottom)/(1+10^((Log IC50−X)*Hill Slope)) Formula (2): […]
(§21) Wherein, Y axis was the inhibition rate, and the X axis was the compound concentration.

BRDT(D1) = BRDT(D1) (Homo sapiens (Human), UniProt Q58F21); assay: HTRF binding of compounds on BRDT (D1); details: read-out: IC50 against BRDT(D1)
Text: as §1, §2, §3
(§22) 5. Steps for Homogeneous Time-Resolved Fluorescence Detection:
(§23) 1) According to the arrangement of the detection plate, all compounds were diluted in Echo plate.
(§24) The final dilution concentration of DMSO is 0.1%.
(§25) 2) The compound or DMSO was transferred to a 384-well detection plate with the Echo automatic sampler.
(§26) 3) Two-fold concentration of the mixture of protein and peptide was added to the detection plate.
(§27) 4) Two-fold concentration of mixed detection solution was added to the test plate, and shaken for 30 s.
(§28) 5) Incubating for 2 h at room temperature.
(§29) 6) Fluorescence signal was read on Envision multi-function microplate reader (excitation light wavelength being 340 nm, and emission light wavelength being 615 nm and 665 nm).
(§30) The experimental data were recorded in an Excel file, and equation (1) was used to obtain the inhibition rate. Inh%=(Max−Signal)/(Max−Min)*100 Equation (1):
(§31) The obtained data was recorded in GraphPad software, and equation (2) was used to provide the IC50 values. Y=Bottom+(Top−Bottom)/(1+10^((Log IC50−X)*Hill Slope)) Equation (2): […]
(§32) Y axis was the inhibition rate, and X axis was the compound concentration.

BRD4(1,2) = BRD4(1,2) (Homo sapiens (Human), UniProt O60885); assay: HTRF binding of compounds on BRD4 (D1+D2); details: read-out: IC50 against BRD4(1,2)
Text: as §1, §2, §3, §22, §23, §24, §25, §26, §27, §28, §29, §30, §31, §32

CWR22RV1 cells = assay: Inhibition of proliferation of CWR22RV1 cells (CCK-8); assay type: cell-based, human; details: 6 days
Procedure, shortened: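 Cells seeded at 1500/well, cultured overnight, then exposed to compounds in 3-fold dilutions (9 concentrations from 10 μM top final, 0.1% DMSO) for 6 days at 37 °C. Viability read by CCK-8 absorbance at 450 nm after 2.5 h; IC50 from dose-response inhibition fit.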

BRD3(1,2) = BRD3(1,2) (Homo sapiens (Human), UniProt Q15059); assay: AlphaScreen binding of compounds on BRD3 (D1+D2); details: read-out: IC50 against BRD3(1,2)
Chain of BRD3(1,2) (Q15059 29-417): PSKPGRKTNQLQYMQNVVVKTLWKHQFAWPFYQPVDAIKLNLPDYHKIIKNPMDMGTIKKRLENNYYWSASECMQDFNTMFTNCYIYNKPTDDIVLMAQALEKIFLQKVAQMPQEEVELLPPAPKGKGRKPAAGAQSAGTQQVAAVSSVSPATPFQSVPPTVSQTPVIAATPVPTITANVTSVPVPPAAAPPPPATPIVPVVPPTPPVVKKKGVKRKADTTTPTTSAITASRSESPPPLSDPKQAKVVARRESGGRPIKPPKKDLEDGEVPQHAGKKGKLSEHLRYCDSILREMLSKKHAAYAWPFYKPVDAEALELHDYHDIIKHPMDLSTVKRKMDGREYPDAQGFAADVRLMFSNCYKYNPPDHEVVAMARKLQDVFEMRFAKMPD
Text: as §1, §2, §3, §4, §5, §6, §7, §8, §9, §10, §11, §12, §13, §14, §15, §16, §17, §18, §19, §20, §21

Chain of BRD2(1,2) (P25440 65-459): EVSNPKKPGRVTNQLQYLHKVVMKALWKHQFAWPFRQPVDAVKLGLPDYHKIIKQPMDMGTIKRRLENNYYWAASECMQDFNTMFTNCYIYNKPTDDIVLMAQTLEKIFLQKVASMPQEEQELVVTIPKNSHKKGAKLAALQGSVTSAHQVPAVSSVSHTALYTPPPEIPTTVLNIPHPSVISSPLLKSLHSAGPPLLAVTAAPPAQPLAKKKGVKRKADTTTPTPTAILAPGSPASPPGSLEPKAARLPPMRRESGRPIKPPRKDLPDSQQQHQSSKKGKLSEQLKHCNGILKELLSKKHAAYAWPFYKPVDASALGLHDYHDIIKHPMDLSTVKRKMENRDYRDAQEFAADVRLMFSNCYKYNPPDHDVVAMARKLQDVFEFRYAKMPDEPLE

| IC50 (BRD2(1,2)) | IC50 (BRDT(D1)) | IC50 (BRD4(1,2)) | IC50 (BRD3(1,2)) | Structure (SMILES) | IC50 (CWR22RV1 cells; Homo sapiens, CWR22Rv1, 144 h) | IC50 (CWR22RV1 cells) |
| --- | --- | --- | --- | --- | --- | --- |
| 1.2 nM | 17 nM | 5.8 nM | 4.1 nM | [2H]C([2H])([2H])n1cc(-c2cc(S(=O)(=O)N3CC[C@H](O)C3)ccc2N2CCC3(CC2)CC3(F)F)c2cc[nH]c2c1=O [Compound 241, (S)-4-(2-(1,1-difluoro-6-aza-spiro[2.5]octan-6-yl)-5-((3-hydroxylpyrrolidin-1-yl)sulfonyl)phenyl)-6-trideuteromethyl-1H-pyrrolo[2,3-c]pyridin-7(6H)-one] | 1.7 nM |  |
| 1.5 nM | 19 nM | 9.9 nM | 5.3 nM | [2H]C([2H])([2H])n1cc(-c2cc(S(=O)(=O)N3CC[C@@H](O)C3)cnc2N2CCC3(CC2)CC3)c2cc[nH]c2c1=O [Compound 242] | 2.2 nM |  |
| 1.4 nM | 19 nM | 8.9 nM | 5.3 nM | [2H]C([2H])([2H])n1cc(-c2cc(S(=O)(=O)N3CC[C@H](O)C3)cnc2N2CCC3(CC2)CC3)c2cc[nH]c2c1=O [Compound 243] | 1.3 nM |  |
| 1.5 nM | 15 nM | 4.3 nM | 4.1 nM | [2H]C([2H])([2H])n1cc(-c2cc(S(=O)(=O)CC)ccc2N2CCC3(CC2)CC3(F)F)c2cc[nH]c2c1=O [Compound 250, 4-(2-(1,1-difluoro-6-aza-spiro[2.5]octan-6-yl)-5-(ethylsulfonyl)phenyl)-6-trideuteromethyl-1H-pyrrolo[2,3-c]pyridin-7(6H)-one] |  | 120 nM |
